Results as given in paper PMC4420714 (Peptides, 2015).
Entries after “also recorded” stand apart in the source; their conditions may differ.

Key:
VPAC2-R [1] = target: T1, VPAC2-R (Homo sapiens, UniProt P41587); test: Binding of 125I-PACAP27 to VPAC2-R/PANC-1 cells; conditions: ratio of binding IC50, analog vs native parent peptide
T1 sequence (P41587 24-438): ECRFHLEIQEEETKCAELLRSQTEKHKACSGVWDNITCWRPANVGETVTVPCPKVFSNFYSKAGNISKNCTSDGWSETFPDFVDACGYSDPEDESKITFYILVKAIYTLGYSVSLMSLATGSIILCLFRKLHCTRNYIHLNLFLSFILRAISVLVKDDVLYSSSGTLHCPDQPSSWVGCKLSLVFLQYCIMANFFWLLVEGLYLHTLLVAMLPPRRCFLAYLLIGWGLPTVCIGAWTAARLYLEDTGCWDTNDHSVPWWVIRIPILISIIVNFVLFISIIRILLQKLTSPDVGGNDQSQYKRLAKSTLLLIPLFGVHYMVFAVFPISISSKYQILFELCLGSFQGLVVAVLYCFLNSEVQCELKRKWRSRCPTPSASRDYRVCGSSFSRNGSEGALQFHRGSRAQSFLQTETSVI

VPAC2-R [2] = target: T1, VPAC2-R; test: [3H]cAMP generation in VPAC2-R/PANC-1 cells; type: cell-based; conditions: for [3H]cAMP VPAC2-R/PANC-1 % max (agonist class): VPAC2-R/PANC-1 cells, relative to PACAP38, up to 1 µM
PAC1-R [3] = target: T2, PAC1-R (Homo sapiens, UniProt P41586); test: Binding of 125I-PACAP27 to PAC1-R stably transfected NIH 3T3 cells; conditions: binding IC50 ratio
T2 sequence (P41586 21-468): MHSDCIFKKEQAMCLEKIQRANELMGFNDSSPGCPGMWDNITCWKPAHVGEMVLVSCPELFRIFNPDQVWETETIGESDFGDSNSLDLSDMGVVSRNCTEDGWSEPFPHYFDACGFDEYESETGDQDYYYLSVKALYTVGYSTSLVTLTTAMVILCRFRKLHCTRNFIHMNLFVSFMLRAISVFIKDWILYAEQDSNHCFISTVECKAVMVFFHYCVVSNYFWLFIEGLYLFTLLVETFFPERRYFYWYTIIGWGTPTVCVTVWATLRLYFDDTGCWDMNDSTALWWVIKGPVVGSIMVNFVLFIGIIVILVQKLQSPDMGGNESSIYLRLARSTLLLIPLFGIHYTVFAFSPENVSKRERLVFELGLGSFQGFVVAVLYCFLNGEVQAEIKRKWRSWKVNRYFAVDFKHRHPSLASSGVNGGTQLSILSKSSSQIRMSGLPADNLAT

PAC1-R [4] = target: T2, PAC1-R; test: [3H]cAMP generation in PAC1-R cells; type: cell-based
VPAC1-R [5] = target: T3, VPAC1-R (Homo sapiens, UniProt P32241); test: [3H]cAMP generation in VPAC1-R/PANC-1 cells; type: cell-based; conditions: for [3H]cAMP VPAC1-R/PANC-1 % max (agonist class): relative to PACAP38, up to 1 µM
T3 sequence (P32241 31-457): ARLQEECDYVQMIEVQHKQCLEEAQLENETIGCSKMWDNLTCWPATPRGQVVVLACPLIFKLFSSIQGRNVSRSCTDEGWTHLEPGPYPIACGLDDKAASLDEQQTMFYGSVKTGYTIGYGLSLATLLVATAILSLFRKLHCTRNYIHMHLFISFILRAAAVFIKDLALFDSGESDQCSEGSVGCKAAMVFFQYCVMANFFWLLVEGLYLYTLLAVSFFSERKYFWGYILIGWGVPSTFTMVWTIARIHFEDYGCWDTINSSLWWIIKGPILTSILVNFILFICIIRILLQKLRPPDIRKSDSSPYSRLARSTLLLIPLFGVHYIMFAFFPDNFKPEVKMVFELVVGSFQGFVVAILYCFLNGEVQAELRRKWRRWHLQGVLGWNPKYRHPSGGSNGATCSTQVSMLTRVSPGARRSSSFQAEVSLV

VPAC1-R [6] = target: T3, VPAC1-R; test: Binding of 125I-VIP to VPAC1-R/PANC-1 cells; conditions: ratio of binding IC50, analog vs native parent peptide
VPAC1-R [7] = target: T3, VPAC1-R; test: [3H]cAMP generation in T47D cells; type: cell-based; conditions: for [3H]cAMP T47D % max (agonist class): relative to PACAP38, up to 1 µM

Row | Substance | decrease in affinity for VPAC2-R/PANC-1 cells compared to native PACAP38 (or PACAP27, VIP) (VPAC2-R [1]) | [3H]cAMP VPAC2-R/PANC-1 % max (agonist class) (VPAC2-R [2]) | decrease in affinity for VPAC1-R/PANC-1 cells compared to native PACAP38 (or PACAP27, VIP) (VPAC1-R [6]) | [3H]cAMP VPAC1-R/PANC-1 % max (agonist class) (VPAC1-R [5]; VPAC1-R/PANC-1 cells) | [3H]cAMP T47D % max (agonist class) (VPAC1-R [7]) | also measured
1 | [Lys(palmitoyl)^38]PACAP38 [Peptide P12] | 16–21 fold | – | – | – | – | –
2 | [D-Ser^2,Lys(Palmitoyl)^38]PACAP38 [Peptide P13] | 16–21 fold | – | – | – | – | –
3 | [Sar^3]PACAP38 [Peptide P19] | 15–500 fold | Ag (1 µM, 35) | – | – | – | –
4 | [Pip^3,Aib^16,28,Ala^17,20,Lys^34,D-Lys^38]PACAP38 [Peptide P41] | – | no agonist activity; also recorded: No Act | – | – | – | –
5 | vasoactive intestinal peptide [VIP, reference compound] | – | – | – | – | – | lower affinity for PAC1-R cells than VPAC1-R/PANC-1 cells (PAC1-R [3]; VPAC1-R preferring): > 1,000 fold; lower affinity for PAC1-R cells than VPAC2-R/PANC-1 cells (PAC1-R [3]; VPAC2-R preferring): > 400 fold; [3H]cAMP PAC1-R % max (agonist class) (PAC1-R [4]): No Act; less potent than PACAP38 and PACAP27 at stimulating PAC1-R cells (PAC1-R [4]; cAMP generation): > 800 fold; maximal increase in cAMP, PAC1-R cells (PAC1-R [4]; over control): 4.1 ± 1.5 fold; maximal increase in cAMP, VPAC1-R/PANC-1 cells (VPAC1-R [5]): 5.0 ± 0.7 fold; maximal increase in cAMP, VPAC2-R/PANC-1 cells (VPAC2-R [2]): 6.5 ± 2.0 fold
6 | [Sar^4]PACAP27 [Peptide P22] | 6–132 fold | no agonist activity; also recorded: No Act | 100–500 fold | no agonist activity; also recorded: No Act | No Act | –
7 | [Pip^3,Aib^16,28,Ala^17,21,Lys^34,D-Lys^38]PACAP38 [Peptide P40] | – | no agonist activity; also recorded: No Act | – | – | – | –
8 | [Pip^3,Ala^14,17,Aib^16,28,Lys^34,D-Lys^38]PACAP38 [Peptide P39] | – | no agonist activity; also recorded: No Act | – | – | – | –
9 | [Iaa^1,D-Ser^2,Ala^22]PACAP38 [Peptide P48] | 50–400 fold | Ag (1 µM, 43) | – | – | – | –
10 | [Pro^3]PACAP27 [Peptide P5] | 6–132 fold | no agonist activity; also recorded: No Act | 100–500 fold | Ag (1 µM, 23) | Ag (1 µM, 16) | [3H]cAMP T47D % max, agonist activity at 1 µM, still increasing (VPAC1-R [7]; at 1 µM): Ag (1 µM, 16) % max
11 | [Pip^3,Ala^15,17,Aib^16,28,Lys^34,D-Lys^38]PACAP38 [Peptide P38] | – | no agonist activity; also recorded: No Act | – | – | – | –
12 | [Iac^1,Ala^16,17,D-Lys^38]PACAP38 [Peptide P29] | 2-to-6 fold | – | – | – | – | –
13 | [Me-Asp^3,Aib^16,28,Lys^34,D-Lys^38]PACAP38 [Peptide P33] | 40–85 fold | – | – | – | – | –
14 | [Me-Lys^15]PACAP27 [Peptide P2] | 6–132 fold | Ag (1 µM, 19) | 100–500 fold | Ag (1 µM, 68) | No Act | –
15 | [Pip^3,Aib^16,Ala^17]PACAP27 [Peptide P7] | – | no agonist activity; also recorded: No Act | > 1,000 fold | no agonist activity; also recorded: No Act | No Act | –
16 | [N-Ac-His^1,Pip^3,Aib^16,Ala^17]PACAP27 [Peptide P8] | – | Ag (1 µM, 13) | > 1,000 fold | partial agonists; also recorded: pAg (24) | No Act | [3H]cAMP VPAC1-R/PANC-1 % max of partial agonist (VPAC1-R [5]; VPAC1-R/PANC-1 cells, partial agonist maximum): pAg (24) % max
